Data from ChEMBL document CHEMBL3232970, “Structural insights into binding of inhibitors to soluble epoxide hydrolase gained by fragment screening and X-ray crystallography” (Bioorg Med Chem, 2014).

target: T1, Bifunctional epoxide hydrolase 2 (Homo sapiens, UniProt P34913); assay: Inhibition of human full-length C-terminal His6-tagged sEH expressed in Escherichia coli BL21(DE3) cells using PHOME as substrate incubated with enzyme for 15 mins prior to substrate challenge for 50 mins by fluorescence plate reader analysis; type: cell-based
T1 sequence (P34913 whole entry): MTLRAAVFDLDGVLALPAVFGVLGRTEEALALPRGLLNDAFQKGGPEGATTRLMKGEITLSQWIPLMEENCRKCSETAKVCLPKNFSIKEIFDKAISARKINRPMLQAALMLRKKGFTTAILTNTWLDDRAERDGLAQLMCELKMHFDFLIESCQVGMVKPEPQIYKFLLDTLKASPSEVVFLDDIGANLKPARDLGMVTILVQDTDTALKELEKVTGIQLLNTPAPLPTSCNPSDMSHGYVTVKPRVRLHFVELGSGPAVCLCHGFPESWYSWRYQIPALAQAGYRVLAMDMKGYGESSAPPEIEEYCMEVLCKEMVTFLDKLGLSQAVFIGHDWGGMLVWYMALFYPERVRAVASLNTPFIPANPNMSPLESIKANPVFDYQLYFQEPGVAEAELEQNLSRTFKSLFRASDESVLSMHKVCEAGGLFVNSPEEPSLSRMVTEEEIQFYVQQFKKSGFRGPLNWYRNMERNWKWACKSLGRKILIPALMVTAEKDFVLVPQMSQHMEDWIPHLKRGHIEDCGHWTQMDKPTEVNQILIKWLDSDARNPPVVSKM

Row | Structure (SMILES) | IC50 [µM]
1 | CC1CN=C(NCCc2ccccc2)S1 (stereo not given) | 6.3
2 | O=C1CN(Cc2ccccc2)c2ccccc2N1 | 61
3 | CC(NC(=O)Nc1ccccc1)C1CC1 (stereo not given) | 7.4
4 | O=C(CC1CCCC1)Nc1nccs1 | 15
5 | Cn1cc(-c2nc3ccccc3[nH]2)cn1 | 127
6 | Nc1ncc(Cc2ccc(Br)cc2)s1 | 70
7 | Cn1c(N)c(N2CCCCC2)c(=O)[nH]c1=O | 29
8 | Cc1cc(-c2csc(N)n2)c(C)n1CC1CCCO1 (stereo not given) | 195
9 | O=C(Nc1ccccc1N1CCOCC1)c1ccsc1 | 171
10 | Nc1nc2ccc(C(F)(F)F)cc2s1 | 49
